Reference: patent US6359181B1, “Cyclopentane 1-hydroxy alkyl or alkenyl-2-one or 2-hydroxy derivatives as therapeutic agents” (Allergan Sales, Inc., priority 2000, dated 2002)

Legend:
[1] = test system: ocular surface; settings: topical ocular use in humans; cited from earlier work
[2] = test system: intraocular pressure; settings: ocular; compared with PGF2α; cited from earlier work
[3] = test system: Dog intraocular pressure; test: Intraocular pressure in dogs by applanation pneumatonometry; format: in vivo; settings: 25 μl to the ocular surface, IOP before and at 6 hours after administration, FIG. 9
Description: The compounds were prepared at the said concentrations in a vehicle comprising 0.1% polysorbate 80 and 10 mM TRIS base. Dogs were treated by administering 25 μl to the ocular surface, the contralateral eye received vehicle as a control. Intraocular pressure was measured by applanation pneumatonometry. Dog intraocular pressure was measured immediately before drug administration and at 6 hours thereafter.

| Compound | ocular side effects [1] | hypotensive potency versus parent compound [2] | ocular hypotensive effect [3] |
| --- | --- | --- | --- |
| CCCCC[C@H](O)/C=C/[C@@H]1[C@@H](C/C=C\CCCC(=O)O)[C@@H](O)C[C@H]1O [PGF2α, (Z)-7-[(1R,2R,3R,5S)-3,5-Dihydroxy-2-((S)-(E)-3-hydroxyoct-1-enyl)-cyclopentyl]hept-5-enoic Acid] | ocular surface (conjunctival) hyperemia and foreign-body sensation | – | – |
| CCCCC[C@H](O)/C=C/[C@@H]1[C@@H](C/C=C\CCCC(=O)OC(C)C)[C@@H](O)C[C@H]1O [isopropyl ester of PGF2α] | ocular surface (conjunctival) hyperemia and foreign-body sensation | significantly greater hypotensive potency than the parent compound | – |
| CC(=O)OCC(=O)CCC/C=C\C[C@@H]1[C@@H](/C=C/[C@@H](O)CCc2ccc(Cl)s2)[C@H](OC(C)=O)C[C@@H]1O [Example 102, Acetic Acid (Z)-8-{(1R,2R,3R,5S)-3-acetoxy-2-[(S)-(E)-5-(5-chloro-thiophen-2-yl)-3-hydroxy-pent-1-enyl]-5-hydroxy-cyclopentyl}-2-oxo-oct-6-enyl Ester] | – | – | pronounced ocular hypotensive effect |
| CC(=O)OCC(=O)CCC/C=C\C[C@@H]1[C@@H](/C=C/[C@@H](O)CCc2ccc(Cl)s2)[C@H](O)C[C@@H]1O [Example 101, Acetic Acid (Z)-8-{(1R,2R,3R,5S)-2-[(S)-(E)-5-(5-chloro-thiophen-2-yl)-3-hydroxy-pent-1-enyl]-3,5-dihydroxy-cyclopentyl}-2-oxo-oct-6-enyl Ester] | – | – | pronounced ocular hypotensive effect |
